Experiment: xn = mol fraction of the nth substance listed, in the solute-free solvent

O=C1C=CC(=O)N1c1ccccc1Br + CN1CCCC1=O + O
solubility (g/100 g solution)
Conditions | 278.15 K | 283.15 K | 288.15 K | 293.15 K | 298.15 K | 303.15 K | 308.15 K | 313.15 K | 318.15 K | 323.15 K
x2 = 0.0198 | 0.759 | 0.975 | 1.23 | 1.5 | 1.9 | 2.31 | 2.81 | 3.43 | 4.09 | 4.91
x2 = 0.04347 | 2.17 | 2.74 | 3.4 | 4.11 | 5.08 | 6.17 | 7.35 | 8.81 | 10.3 | 12.2
x2 = 0.07228 | 4.95 | 6.03 | 7.43 | 8.92 | 10.6 | 12.4 | 14.7 | 17.2 | 19.7 | 22.4
x2 = 0.1081 | 8.04 | 9.64 | 11.7 | 13.7 | 16.3 | 18.8 | 21.8 | 24.8 | 28 | 31.5
x2 = 0.1538 | 12.4 | 14.7 | 17.1 | 20 | 22.9 | 26.2 | 29.7 | 33.3 | 36.9 | 40.5
x2 = 0.2143 | 16.7 | 19.8 | 22.4 | 25.9 | 29.3 | 33.2 | 37 | 40.7 | 44.8 | 48.7
x2 = 0.2979 | 21.5 | 24.7 | 28.1 | 31.6 | 35.2 | 39.1 | 43.5 | 47.2 | 51.2 | 55.1
x2 = 0.421 | 24.7 | 28.2 | 31.9 | 35.7 | 40 | 44.2 | 48.6 | 52.7 | 56.9 | 60.9
x2 = 0.6207 | 26.4 | 29.9 | 34.1 | 38.1 | 42 | 46.6 | 50.6 | 55.1 | 59.5 | 63.9

O=c1cc(CBr)c2ccccc2[nH]1 + CN1CCCC1=O + O
solubility (g/100 g solution)
Conditions | 278.15 K | 283.15 K | 288.15 K | 293.15 K | 298.15 K | 303.15 K | 308.15 K | 313.15 K | 318.15 K
x2 = 0.0198 | 0.0293 | 0.0392 | 0.0514 | 0.0682 | 0.0873 | 0.117 | 0.149 | 0.189 | 0.234
x2 = 0.04347 | 0.107 | 0.136 | 0.176 | 0.223 | 0.281 | 0.361 | 0.442 | 0.546 | 0.67
x2 = 0.07228 | 0.271 | 0.344 | 0.428 | 0.538 | 0.646 | 0.804 | 0.971 | 1.16 | 1.41
x2 = 0.1081 | 0.494 | 0.611 | 0.762 | 0.924 | 1.12 | 1.37 | 1.66 | 1.97 | 2.35
x2 = 0.1538 | 0.764 | 0.928 | 1.13 | 1.36 | 1.65 | 1.94 | 2.3 | 2.71 | 3.16
x2 = 0.2143 | 1.04 | 1.24 | 1.5 | 1.76 | 2.11 | 2.47 | 2.9 | 3.34 | 3.89
x2 = 0.2979 | 1.24 | 1.48 | 1.76 | 2.07 | 2.46 | 2.87 | 3.32 | 3.82 | 4.37
x2 = 0.421 | 1.38 | 1.62 | 1.91 | 2.24 | 2.57 | 2.99 | 3.44 | 3.93 | 4.47
x2 = 0.6207 | 1.42 | 1.64 | 1.9 | 2.19 | 2.5 | 2.89 | 3.26 | 3.7 | 4.17

CC1=NNC(=O)N(N=Cc2cccnc2)C1 + CN(C)C=O + CC(C)O
solubility (g/100 g solution)
Conditions | 278.15 K | 283.15 K | 288.15 K | 293.15 K | 298.15 K | 303.15 K | 308.15 K | 313.15 K | 318.15 K
x2 = 0.1705 | 0.264 | 0.304 | 0.352 | 0.405 | 0.466 | 0.532 | 0.612 | 0.697 | 0.796
x2 = 0.354 | 0.455 | 0.512 | 0.588 | 0.68 | 0.777 | 0.896 | 1.02 | 1.15 | 1.3
x2 = 0.5522 | 0.614 | 0.694 | 0.802 | 0.91 | 1.04 | 1.18 | 1.33 | 1.5 | 1.69
x2 = 0.7668 | 0.771 | 0.871 | 0.998 | 1.13 | 1.29 | 1.47 | 1.65 | 1.85 | 2.1

COC(=O)Nc1nc2ccccc2[nH]1 + CN(C)C=O + O
solubility (g/100 g solution)
Conditions | 278.15 K | 283.15 K | 288.15 K | 293.15 K | 298.15 K | 303.15 K | 308.15 K | 313.15 K | 318.15 K
x2 = 0.02669 | 0.00314 | 0.0037 | 0.00435 | 0.00513 | 0.00608 | 0.0069 | 0.00793 | 0.00907 | 0.0104
x2 = 0.05816 | 0.0129 | 0.0149 | 0.017 | 0.0196 | 0.0227 | 0.0252 | 0.0284 | 0.0319 | 0.0358
x2 = 0.09552 | 0.0278 | 0.0343 | 0.0397 | 0.045 | 0.0511 | 0.0563 | 0.0627 | 0.0696 | 0.0773
x2 = 0.1411 | 0.0542 | 0.0604 | 0.0678 | 0.076 | 0.0856 | 0.0938 | 0.103 | 0.114 | 0.126
x2 = 0.1978 | 0.0795 | 0.0881 | 0.098 | 0.109 | 0.122 | 0.133 | 0.147 | 0.161 | 0.175
x2 = 0.2702 | 0.108 | 0.12 | 0.133 | 0.147 | 0.163 | 0.177 | 0.194 | 0.211 | 0.23
x2 = 0.3643 | 0.144 | 0.159 | 0.174 | 0.192 | 0.212 | 0.23 | 0.25 | 0.271 | 0.294
x2 = 0.4967 | 0.186 | 0.205 | 0.223 | 0.244 | 0.268 | 0.29 | 0.315 | 0.339 | 0.365
x2 = 0.6912 | 0.219 | 0.24 | 0.259 | 0.282 | 0.308 | 0.333 | 0.359 | 0.387 | 0.416

Nc1cc(-c2ccncc2)c[nH]c1=O + CN(C)C=O + O
solubility (g/100 g solution)
Conditions | 278.15 K | 283.15 K | 288.15 K | 293.15 K | 298.15 K | 303.15 K | 308.15 K | 313.15 K | 318.15 K | 323.15 K
x2 = 0.02666 | 0.00203 | 0.00236 | 0.0028 | 0.00324 | 0.00375 | 0.00428 | 0.00488 | 0.00552 | 0.00624 | 0.00705
x2 = 0.05806 | 0.00422 | 0.00489 | 0.00574 | 0.00661 | 0.00759 | 0.00861 | 0.00975 | 0.011 | 0.0123 | 0.0139
x2 = 0.09556 | 0.00683 | 0.00794 | 0.00916 | 0.0106 | 0.0122 | 0.014 | 0.0156 | 0.0177 | 0.0198 | 0.0224
x2 = 0.1412 | 0.00979 | 0.0113 | 0.0131 | 0.015 | 0.0171 | 0.0195 | 0.0221 | 0.0248 | 0.0277 | 0.0316
x2 = 0.1978 | 0.0124 | 0.0143 | 0.0167 | 0.0193 | 0.022 | 0.0249 | 0.0283 | 0.0322 | 0.036 | 0.0407
x2 = 0.27 | 0.0152 | 0.0177 | 0.0208 | 0.0238 | 0.0272 | 0.0308 | 0.0348 | 0.0395 | 0.0442 | 0.0497
x2 = 0.3652 | 0.0161 | 0.0195 | 0.0231 | 0.0268 | 0.0307 | 0.035 | 0.0397 | 0.0451 | 0.0506 | 0.0572
x2 = 0.4965 | 0.0192 | 0.0227 | 0.0267 | 0.0306 | 0.035 | 0.0398 | 0.0452 | 0.0516 | 0.0579 | 0.0654
x2 = 0.6893 | 0.0186 | 0.0221 | 0.0258 | 0.0305 | 0.0349 | 0.0402 | 0.0458 | 0.0523 | 0.0593 | 0.0673
